# Results reported in patent US9181219B2, “Compounds of modulating TRPV3 function” (Hydra Biosciences, Inc., priority 2006, dated 2015).
# Read-outs that look alike come from different tables or passages of the source.
# Experiments:
# Assay type in all cases: cell-based
# [1] = molecular target: TRPV3 (Homo sapiens (Human), UniProt Q8NET8); test: Whole-cell patch clamp of TRPV3 mediated inward current; settings: HEK293/TREx TRPV3 cells, approximate values
# Excerpt: Whole-cell patch clamp experiments permit the detection of currents through the TRPV3 channel in the cell line described above. A glass electrode is brought into contact with a single cell and the membrane is then ruptured, permitting control of the voltage of the cell membrane and measurement of currents flowing across the membrane using the amplifier attached to the electrode. A perfusion system permits control of the extracellular solution, including the addition of blockers and activators of the current. The current can be activated by heating this solution to 28° C. or warmer or by addition of 20 μM 2-APB to the solution.
# TRPV3 cells were induced 20-48 hours, removed from growth plates, and replated at low density (to attain good single-cell physical separation) on glass coverslips for measurement. In some cases, cells were grown in low density overnight on glass coverslips. Patch clamp recordings were made in the whole-cell mode with a holding potential of −40 mV. Every 5 seconds, a voltage ramp was applied from −120 to +100 mV, 400 ms in duration. Currents elicited were quantified at −80 mV and +80 mV. The internal solution consisted of 140 mM cesium aspartate, 10 mM EGTA, 2.27 mM MgCl2, 1.91 mM CaCl2 and 10 mM HEPES, pH to 7.2 with KOH; with 50 nM calculated free Ca^2+. External solution was Ringer's solution described above. Upon addition of 2-APB or upon heating of the extraceullar solution as described above, TRPV3 current was induced only in TRPV3-expressing cells and not in parental HEK293 TREx cells. […] Removal of the stimulus caused most of the current to go away, and inhibitor addition could still inhibit this current.
# The data includes approximate IC50 values for inhibition of TRPV3 mediated inward current as assessed by patch-clamp.
# [2] = molecular target: NaV1.2 (Homo sapiens (Human), UniProt Q99250); test: Qpatch selectivity, NaV1.2 inward current; settings: tested at concentrations up to 30 μM, IC50 estimated
# Excerpt: (§1) To determine whether compounds were selective for TRPV3 inhibition over inhibition of other ion channel types, the human ERG (hERG), NaV1.2, and TRPV1 (hTRPV1) channels and the rat TRPV6 (rTRPV6) channel were also stably transfected and expressed or induced to express in mammalian cell lines. The methods for measuring currents from these channels are well-established and have been described in numerous publications (See, Weerapura et al., 2002, J Physiology 540: 15-27; Rush et al., 2005, J Physiology 564: 808-815; Caterina et al., 1997, Nature 389: 816-824; Hoenderhop et al., 2001, J Physiology 537: 747-761; Clapham et al., 2003, Pharmacol Rev 55: 591-596). Compounds of interest were tested against these channels at concentrations up to 30 μM, and the resulting data were used to estimate IC50.
# [3] = molecular target: hERG (Homo sapiens (Human), UniProt Q12809); test: Patch clamp selectivity, hERG current; settings: tested at concentrations up to 30 μM, IC50 estimated
# Excerpt: as §1
# [4] = molecular target: TRPV1 (hTRPV1) (Homo sapiens (Human), UniProt Q8NER1); test: Patch clamp selectivity, TRPV1 inward current; settings: tested at concentrations up to 30 μM, IC50 estimated
# Excerpt: as §1
# [5] = Phase 1 inward current, read-out: TRPV3 Phase 1 IC50 inward
# [6] = Phase 2 inward current, read-out: TRPV3 Phase 2 IC50 inward
# Sequence of TRPV3 (Q8NET8 whole entry, species assumed, the tested form may be a part): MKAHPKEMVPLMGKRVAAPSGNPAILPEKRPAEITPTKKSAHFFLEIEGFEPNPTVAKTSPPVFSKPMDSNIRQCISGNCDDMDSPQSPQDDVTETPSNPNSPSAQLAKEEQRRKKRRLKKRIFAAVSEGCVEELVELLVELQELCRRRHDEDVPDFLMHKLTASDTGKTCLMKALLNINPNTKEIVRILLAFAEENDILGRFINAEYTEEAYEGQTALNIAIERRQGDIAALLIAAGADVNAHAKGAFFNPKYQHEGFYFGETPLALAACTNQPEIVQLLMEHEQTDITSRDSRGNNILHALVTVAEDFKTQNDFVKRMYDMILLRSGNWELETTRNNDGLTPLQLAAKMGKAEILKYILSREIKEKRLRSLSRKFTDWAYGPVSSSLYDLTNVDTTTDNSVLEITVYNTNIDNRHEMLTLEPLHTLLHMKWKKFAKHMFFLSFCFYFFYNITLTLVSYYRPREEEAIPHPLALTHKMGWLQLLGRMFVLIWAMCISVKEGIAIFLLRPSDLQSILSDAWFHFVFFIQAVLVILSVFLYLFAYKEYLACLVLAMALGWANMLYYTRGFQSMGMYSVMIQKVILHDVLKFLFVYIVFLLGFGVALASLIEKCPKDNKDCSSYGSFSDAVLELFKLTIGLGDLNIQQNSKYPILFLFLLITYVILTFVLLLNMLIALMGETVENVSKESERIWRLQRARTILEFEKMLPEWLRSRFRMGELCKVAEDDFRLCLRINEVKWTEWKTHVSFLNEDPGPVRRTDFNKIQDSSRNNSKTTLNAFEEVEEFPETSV
# Sequence of hERG (Q12809 whole entry): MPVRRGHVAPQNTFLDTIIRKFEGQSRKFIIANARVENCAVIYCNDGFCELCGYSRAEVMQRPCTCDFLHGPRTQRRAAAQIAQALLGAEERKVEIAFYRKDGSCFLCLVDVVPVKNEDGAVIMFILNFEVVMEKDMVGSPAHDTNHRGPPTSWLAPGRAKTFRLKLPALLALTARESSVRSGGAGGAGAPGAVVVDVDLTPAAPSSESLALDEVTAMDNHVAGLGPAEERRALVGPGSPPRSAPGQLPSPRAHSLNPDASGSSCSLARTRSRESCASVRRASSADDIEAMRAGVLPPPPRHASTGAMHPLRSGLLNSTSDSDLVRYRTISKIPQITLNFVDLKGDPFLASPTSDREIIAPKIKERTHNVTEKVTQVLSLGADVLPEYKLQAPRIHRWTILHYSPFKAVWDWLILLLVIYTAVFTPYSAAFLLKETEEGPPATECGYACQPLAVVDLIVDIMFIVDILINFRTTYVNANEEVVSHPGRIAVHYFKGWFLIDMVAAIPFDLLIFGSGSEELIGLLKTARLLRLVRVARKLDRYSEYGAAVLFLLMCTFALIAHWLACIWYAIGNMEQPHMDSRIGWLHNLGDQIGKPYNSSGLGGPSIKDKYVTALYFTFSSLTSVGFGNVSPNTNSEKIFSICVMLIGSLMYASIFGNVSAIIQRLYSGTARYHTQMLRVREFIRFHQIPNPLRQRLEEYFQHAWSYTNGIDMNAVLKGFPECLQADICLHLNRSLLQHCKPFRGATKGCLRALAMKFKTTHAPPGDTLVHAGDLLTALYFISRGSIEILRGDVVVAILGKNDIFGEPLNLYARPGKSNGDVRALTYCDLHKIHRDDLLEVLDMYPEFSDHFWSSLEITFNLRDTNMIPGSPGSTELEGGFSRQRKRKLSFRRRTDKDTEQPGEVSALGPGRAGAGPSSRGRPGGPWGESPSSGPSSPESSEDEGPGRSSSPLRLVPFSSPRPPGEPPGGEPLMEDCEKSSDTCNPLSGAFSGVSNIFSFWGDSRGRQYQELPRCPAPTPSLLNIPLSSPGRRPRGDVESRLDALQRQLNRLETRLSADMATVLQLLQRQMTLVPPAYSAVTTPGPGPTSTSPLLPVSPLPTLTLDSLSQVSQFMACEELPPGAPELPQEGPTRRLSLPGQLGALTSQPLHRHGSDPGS
# Sequence of NaV1.2 (Q99250 whole entry): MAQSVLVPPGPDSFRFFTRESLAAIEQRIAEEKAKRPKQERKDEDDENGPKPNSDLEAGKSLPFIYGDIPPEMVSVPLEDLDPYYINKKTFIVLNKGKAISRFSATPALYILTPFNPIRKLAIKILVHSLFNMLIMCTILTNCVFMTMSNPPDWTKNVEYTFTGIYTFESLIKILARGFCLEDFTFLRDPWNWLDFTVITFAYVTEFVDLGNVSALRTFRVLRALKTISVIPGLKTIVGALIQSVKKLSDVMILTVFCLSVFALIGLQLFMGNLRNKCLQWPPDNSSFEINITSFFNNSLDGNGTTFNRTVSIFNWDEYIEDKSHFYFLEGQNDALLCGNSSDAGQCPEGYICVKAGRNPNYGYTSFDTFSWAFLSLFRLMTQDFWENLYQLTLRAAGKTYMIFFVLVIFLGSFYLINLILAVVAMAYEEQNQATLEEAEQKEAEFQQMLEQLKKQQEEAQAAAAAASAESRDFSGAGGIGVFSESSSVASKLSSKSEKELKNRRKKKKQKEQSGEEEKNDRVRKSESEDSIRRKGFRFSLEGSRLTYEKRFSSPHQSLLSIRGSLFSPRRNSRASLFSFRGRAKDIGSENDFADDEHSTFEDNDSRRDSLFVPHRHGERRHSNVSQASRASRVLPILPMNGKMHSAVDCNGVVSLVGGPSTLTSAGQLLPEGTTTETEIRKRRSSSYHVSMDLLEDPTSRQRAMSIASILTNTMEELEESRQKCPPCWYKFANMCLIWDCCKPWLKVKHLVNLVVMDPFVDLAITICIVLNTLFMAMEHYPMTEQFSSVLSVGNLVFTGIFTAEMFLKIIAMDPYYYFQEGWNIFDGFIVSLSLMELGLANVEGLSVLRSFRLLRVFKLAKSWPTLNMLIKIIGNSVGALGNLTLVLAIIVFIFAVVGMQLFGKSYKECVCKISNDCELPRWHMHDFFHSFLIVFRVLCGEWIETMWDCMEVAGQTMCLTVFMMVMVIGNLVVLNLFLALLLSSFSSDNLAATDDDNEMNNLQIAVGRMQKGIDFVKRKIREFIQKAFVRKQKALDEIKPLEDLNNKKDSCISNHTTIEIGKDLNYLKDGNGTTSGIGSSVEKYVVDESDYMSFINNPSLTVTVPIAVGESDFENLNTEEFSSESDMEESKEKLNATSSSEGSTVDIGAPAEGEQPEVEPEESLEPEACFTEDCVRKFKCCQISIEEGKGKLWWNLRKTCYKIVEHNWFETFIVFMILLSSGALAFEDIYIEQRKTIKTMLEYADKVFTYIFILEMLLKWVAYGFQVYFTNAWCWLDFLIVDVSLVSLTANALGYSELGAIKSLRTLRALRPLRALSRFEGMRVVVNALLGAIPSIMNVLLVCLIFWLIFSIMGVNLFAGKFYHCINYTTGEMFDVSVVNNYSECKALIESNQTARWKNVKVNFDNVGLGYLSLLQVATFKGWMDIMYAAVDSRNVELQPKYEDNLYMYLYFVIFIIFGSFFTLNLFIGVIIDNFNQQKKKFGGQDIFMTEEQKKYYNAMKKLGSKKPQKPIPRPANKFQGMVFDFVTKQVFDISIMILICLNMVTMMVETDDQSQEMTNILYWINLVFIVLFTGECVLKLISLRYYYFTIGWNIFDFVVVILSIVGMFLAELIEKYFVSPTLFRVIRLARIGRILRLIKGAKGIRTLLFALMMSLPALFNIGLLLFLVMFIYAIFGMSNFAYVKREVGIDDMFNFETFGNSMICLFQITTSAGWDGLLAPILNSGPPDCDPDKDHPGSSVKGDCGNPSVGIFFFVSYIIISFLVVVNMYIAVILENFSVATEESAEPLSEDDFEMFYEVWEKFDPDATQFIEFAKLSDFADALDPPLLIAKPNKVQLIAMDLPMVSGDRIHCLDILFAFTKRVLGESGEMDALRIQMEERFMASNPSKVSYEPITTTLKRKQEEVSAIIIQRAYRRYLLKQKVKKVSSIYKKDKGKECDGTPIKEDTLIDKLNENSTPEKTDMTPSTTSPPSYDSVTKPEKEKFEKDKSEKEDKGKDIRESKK
# Sequence of TRPV1 (hTRPV1) (Q8NER1 whole entry): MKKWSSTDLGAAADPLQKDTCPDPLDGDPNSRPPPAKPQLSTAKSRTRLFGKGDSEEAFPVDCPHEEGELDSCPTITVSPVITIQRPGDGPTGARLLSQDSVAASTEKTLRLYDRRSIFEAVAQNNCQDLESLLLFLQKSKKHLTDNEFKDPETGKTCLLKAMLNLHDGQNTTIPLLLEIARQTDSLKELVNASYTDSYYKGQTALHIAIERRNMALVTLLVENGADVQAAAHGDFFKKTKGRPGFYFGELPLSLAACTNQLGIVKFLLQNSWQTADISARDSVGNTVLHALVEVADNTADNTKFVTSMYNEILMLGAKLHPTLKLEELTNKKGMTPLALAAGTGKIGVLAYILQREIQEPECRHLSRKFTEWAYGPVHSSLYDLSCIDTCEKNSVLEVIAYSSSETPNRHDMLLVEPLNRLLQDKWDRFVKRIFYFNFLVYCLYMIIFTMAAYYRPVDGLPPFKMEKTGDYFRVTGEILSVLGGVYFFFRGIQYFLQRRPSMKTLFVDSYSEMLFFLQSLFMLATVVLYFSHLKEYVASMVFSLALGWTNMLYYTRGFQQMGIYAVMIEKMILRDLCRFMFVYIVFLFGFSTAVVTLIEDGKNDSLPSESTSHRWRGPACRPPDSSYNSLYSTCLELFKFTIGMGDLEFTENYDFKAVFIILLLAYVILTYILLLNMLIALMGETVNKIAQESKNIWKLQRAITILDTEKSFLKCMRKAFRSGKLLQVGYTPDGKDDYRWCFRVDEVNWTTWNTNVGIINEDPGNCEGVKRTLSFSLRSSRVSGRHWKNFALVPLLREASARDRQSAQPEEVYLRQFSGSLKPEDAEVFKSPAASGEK
"IC50 [1, 5] [µM]","IC50 [1, 6] [µM]",IC50 [2] [µM],IC50 [4] [µM],Structure (SMILES),IC50 [3] [µM]
≤ 0.2,≤ 0.5,–,–,"Cc1cccc2c1N(C(=O)CSc1ncc(C(F)(F)F)cc1Cl)CCC2 [Compound 10, 2-(3-chloro-5-trifluoromethyl-pyridine-2-ylsulfanyl)-1-(8-methyl-3,4-dihydro-2H-quinolin-1-yl)-ethanone]",–
≤ 1,≤ 5,–,–,"Cc1cccc2c1N(C(=O)CSc1ncccc1C(F)(F)F)CCC2 [Compound 8, 1-(8-methyl-3,4-dihydro-2H-quinolin-1-yl)-2-(3-trifluoromethyl-pyridin-2-ylsulfanyl)-ethanone]",–
≤ 0.2,≤ 1,≥ 30,–,"Cc1cccc2c1N(C(=O)CSc1ncccc1Cl)CCC2 [Compound 20, 2-(3-chloro-pyridin-2-ylsulfanyl)-1-(8-methyl-3,4-dihydro-2H-quinolin-1-yl)-ethanone]",≥ 10
≤ 5,≤ 5,–,–,COC(=O)c1cnc(SCC(=O)N2CCCc3cccc(C)c32)c(Cl)c1,–
≤ 0.2,≤ 0.2,–,–,Cc1cnc(SCC(=O)N2CCCc3cccc(C)c32)cc1C,–
≤ 0.2,≤ 0.2,–,–,Cc1cccc2c1N(C(=O)CSc1ncc(C(F)(F)F)cc1F)CCC2,–
≤ 0.5,≤ 0.2,≥ 30,≥ 20,"Cc1cccc2c1N(C(=O)CSc1ccc(C(F)(F)F)cn1)CCC2 [Compound 6, 2-(5-trifluoromethyl-pyridine-2-ylsulfanyl)-1-(8-methyl-3,4-dihydro-2H-quinolin-1-yl)-ethanone]",≥ 30
≤ 5,≤ 5,–,–,CCc1cc(C(F)(F)F)cnc1SCC(=O)N1CCCc2cccc(C)c21,–
≤ 5,≤ 1,–,–,Cc1ccnc(SCC(=O)N2CCCc3cccc(C)c32)c1C,–
≤ 0.2,≤ 0.2,–,–,Cc1cccc2c1N(C(=O)CSc1ncc(Cl)cc1Cl)CCC2,–
≤ 0.5,≤ 0.5,–,–,"Cc1cccc2c1N(C(=O)CSc1ccc(Cl)cn1)CCC2 [Compound 16, 2-(5-Chloro-pyridin-2-ylsulfanyl)-1-(8-methyl-3,4-dihydro-2H-quinolin-1-yl)-ethanone]",≥ 5

# The next lines start with the compound.
Structure (SMILES),"IC50 [1, 5] [µM]","IC50 [1, 6] [µM]",IC50 [2] [µM],IC50 [4] [µM],IC50 [3] [µM]
Cc1cccc2c1N(C(=O)CSc1cc(C#N)ccn1)CCC2,≤ 10,≤ 10,–,–,–
Cc1cccc2c1N(C(=O)CSc1ccc(C#N)cn1)CCC2,≤ 10,≤ 5,–,–,–
COc1cccc2c1N(C(=O)CSc1ncccc1Cl)CCC2,≤ 0.5,≤ 0.5,–,–,–
Cc1cccc2c1N(C(=O)CSc1ccc(Br)cn1)CCC2,≤ 0.5,≤ 0.5,–,–,–
"Cc1cccc2c1N(C(=O)CSc1ccccn1)CCC2 [Compound 12, 1-(8-methyl-3,4-dihydro-2H-quinolin-1-yl)-2-(pyridine-2-ylsulfanyl)-ethanone]",≤ 5,≤ 10,–,–,–
"Cc1ccc(SCC(=O)N2CCCc3cccc(C)c32)nc1 [Compound 24, 1-(8-Methyl-3,4-dihydro-2H-quinolin-1-yl)-2-(5-methyl-pyridin-2-ylsulfanyl)-ethanone]",≤ 5,≤ 10,–,–,–
Cc1cccc2c1N(C(=O)CSc1ncccc1C#N)CCC2,≤ 1,≤ 0.5,–,–,–
"O=C(CSc1ccc(Cl)cn1)N1CCCc2ccccc21 [Compound 21, 2-(5-chloro-pyridine-2-ylthio)-1-(3,4-dihydroquinolin-1-(2H)-yl)-ethanone]",≤ 5,≤ 5,–,–,–
O=C(CSc1ccc(C(F)(F)F)cn1)N1CCCc2ccccc21,≤ 5,≤ 1,≥ 30,–,–
